# Tests used:
# Assay type in all cases: cell-based
# human TLR8 = human TLR8 (Homo sapiens (Human), UniProt Q9NR97); assay: TLR8 inhibition reporter assay (HEK-Blue, SEAP); conditions: HEK-Blue cells overexpressing human TLR8, R848 15.9 μM stimulation
# Method in brief: (§1)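 Reporter cells, NF-κB/AP-1-driven SEAP; cmpd 0.05 nM–50 μM final, 30 min RT pre-treat; stim gardiquimod 7.5 μM (TLR7), R848 15.9 μM (TLR8), ODN2006 5 nM (TLR9); 22 h 37 °C; % inhibition of SEAP signal.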
# human TLR7 = human TLR7 (Homo sapiens (Human), UniProt Q9NYK1); assay: TLR7 inhibition reporter assay (HEK-Blue, SEAP); conditions: HEK-Blue cells overexpressing human TLR7, gardiquimod 7.5 μM stimulation
# Method in brief: as §1
# human TLR9 = human TLR9 (Homo sapiens (Human), UniProt Q9NR96); assay: TLR9 inhibition reporter assay (HEK-Blue, SEAP); conditions: HEK-Blue cells overexpressing human TLR9, ODN2006 5 nM stimulation
# Method in brief: as §1
# human TLR9, sequence (Q9NR96 26-1032): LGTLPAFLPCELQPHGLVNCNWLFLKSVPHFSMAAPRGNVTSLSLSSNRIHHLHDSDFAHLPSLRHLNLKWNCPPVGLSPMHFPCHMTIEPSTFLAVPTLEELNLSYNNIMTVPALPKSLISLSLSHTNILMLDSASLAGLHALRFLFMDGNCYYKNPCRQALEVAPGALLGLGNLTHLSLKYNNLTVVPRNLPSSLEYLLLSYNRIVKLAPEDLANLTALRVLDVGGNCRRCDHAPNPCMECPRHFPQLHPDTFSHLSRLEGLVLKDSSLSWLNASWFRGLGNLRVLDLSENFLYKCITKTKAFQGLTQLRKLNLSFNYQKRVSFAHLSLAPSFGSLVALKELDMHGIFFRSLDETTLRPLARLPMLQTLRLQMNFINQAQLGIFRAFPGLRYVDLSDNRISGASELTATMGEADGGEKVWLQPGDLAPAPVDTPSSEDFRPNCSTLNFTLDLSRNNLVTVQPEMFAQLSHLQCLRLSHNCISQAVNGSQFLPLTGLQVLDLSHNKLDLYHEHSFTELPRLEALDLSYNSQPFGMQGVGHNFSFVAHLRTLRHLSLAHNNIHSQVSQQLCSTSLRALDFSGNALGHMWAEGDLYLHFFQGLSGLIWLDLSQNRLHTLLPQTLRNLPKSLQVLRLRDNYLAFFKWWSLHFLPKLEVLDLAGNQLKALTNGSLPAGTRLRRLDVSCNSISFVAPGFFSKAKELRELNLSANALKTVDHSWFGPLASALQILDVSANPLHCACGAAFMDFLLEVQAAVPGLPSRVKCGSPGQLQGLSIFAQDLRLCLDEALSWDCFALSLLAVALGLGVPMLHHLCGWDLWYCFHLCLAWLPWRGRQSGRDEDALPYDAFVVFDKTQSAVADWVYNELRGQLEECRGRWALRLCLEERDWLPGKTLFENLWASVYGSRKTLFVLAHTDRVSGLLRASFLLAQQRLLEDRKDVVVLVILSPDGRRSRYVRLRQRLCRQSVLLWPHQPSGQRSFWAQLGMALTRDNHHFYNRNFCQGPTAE
# human TLR7, sequence (Q9NYK1 27-1049): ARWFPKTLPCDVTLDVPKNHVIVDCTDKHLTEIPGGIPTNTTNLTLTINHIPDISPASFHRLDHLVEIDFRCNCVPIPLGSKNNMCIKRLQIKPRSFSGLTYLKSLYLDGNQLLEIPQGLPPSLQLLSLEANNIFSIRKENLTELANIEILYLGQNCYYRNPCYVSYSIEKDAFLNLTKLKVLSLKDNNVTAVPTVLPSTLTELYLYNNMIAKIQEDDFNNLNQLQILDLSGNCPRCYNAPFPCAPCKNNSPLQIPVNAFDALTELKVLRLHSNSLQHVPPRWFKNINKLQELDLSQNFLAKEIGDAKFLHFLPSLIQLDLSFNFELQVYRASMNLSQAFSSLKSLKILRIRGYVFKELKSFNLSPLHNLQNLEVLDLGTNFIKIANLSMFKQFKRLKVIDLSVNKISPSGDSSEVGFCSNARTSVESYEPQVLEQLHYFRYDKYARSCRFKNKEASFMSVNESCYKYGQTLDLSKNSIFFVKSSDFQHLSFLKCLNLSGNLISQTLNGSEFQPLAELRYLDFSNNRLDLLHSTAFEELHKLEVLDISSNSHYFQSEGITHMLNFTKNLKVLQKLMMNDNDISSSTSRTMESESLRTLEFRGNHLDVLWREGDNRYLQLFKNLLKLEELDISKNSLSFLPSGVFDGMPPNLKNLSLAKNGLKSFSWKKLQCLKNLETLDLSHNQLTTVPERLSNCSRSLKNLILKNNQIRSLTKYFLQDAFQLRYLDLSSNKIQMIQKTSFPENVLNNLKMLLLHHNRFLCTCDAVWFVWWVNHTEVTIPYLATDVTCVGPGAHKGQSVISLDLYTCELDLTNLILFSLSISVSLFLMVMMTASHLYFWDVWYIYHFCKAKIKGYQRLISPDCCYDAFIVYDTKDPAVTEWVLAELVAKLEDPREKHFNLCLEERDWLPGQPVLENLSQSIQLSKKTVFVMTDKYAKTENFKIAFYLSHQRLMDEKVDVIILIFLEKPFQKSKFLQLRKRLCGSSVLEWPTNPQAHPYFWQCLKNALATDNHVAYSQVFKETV
# human TLR8, sequence (Q9NR97 27-1041): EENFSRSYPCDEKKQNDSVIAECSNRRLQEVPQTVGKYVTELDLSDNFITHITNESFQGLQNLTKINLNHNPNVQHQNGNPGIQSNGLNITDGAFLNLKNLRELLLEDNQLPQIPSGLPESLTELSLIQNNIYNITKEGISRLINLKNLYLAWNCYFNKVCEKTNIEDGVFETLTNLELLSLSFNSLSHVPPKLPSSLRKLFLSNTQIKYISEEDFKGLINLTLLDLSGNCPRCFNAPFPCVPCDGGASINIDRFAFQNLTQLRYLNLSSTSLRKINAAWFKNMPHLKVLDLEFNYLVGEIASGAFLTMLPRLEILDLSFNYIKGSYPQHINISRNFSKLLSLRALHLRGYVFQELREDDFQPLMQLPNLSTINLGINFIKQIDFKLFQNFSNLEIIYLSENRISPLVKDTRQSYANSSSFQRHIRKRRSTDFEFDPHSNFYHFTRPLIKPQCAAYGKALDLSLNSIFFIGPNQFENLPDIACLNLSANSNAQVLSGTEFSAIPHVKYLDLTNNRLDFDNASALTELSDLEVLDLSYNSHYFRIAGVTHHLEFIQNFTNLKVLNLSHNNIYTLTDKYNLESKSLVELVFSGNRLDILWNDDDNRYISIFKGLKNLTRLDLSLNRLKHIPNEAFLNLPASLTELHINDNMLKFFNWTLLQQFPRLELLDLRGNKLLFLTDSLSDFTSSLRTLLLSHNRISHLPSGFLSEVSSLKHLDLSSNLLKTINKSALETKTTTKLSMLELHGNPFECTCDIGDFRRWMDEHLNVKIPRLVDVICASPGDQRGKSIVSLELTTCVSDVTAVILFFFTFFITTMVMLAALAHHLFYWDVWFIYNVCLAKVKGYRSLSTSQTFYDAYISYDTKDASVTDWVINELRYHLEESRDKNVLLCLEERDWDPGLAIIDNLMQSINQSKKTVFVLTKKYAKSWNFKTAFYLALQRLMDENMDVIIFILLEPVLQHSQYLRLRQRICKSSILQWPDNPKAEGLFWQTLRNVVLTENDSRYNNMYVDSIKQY
SMILES,IC50 (human TLR8) [nM],IC50 (human TLR7) [nM],IC50 (human TLR9) [nM]
"Cc1cn2cc(-c3[nH]c4ccc(-c5ccc(N6CCN(C)CC6)nc5)cc4c3C(C)C)ccc2n1 [Example 333, 6-(3-isopropyl-5-(6-(4-methylpiperazin-1-yl)pyridin-3-yl)-1H-indol-2-yl)-2-methylimidazo[1,2-a]pyridine]",91,14,114
"Cc1cn2cc(-c3[nH]c4ccc(-c5ccc(N6CCNCC6)nc5)cc4c3C(C)C)ccc2n1 [Example 334, 6-(3-isopropyl-5-(6-(piperazin-1-yl)pyridin-3-yl)-1H-indol-2-yl)-2-methylimidazo[1,2-a]pyridine]",214,45,672
"Cc1cc(-c2[nH]c3ccc(-c4ccc(N5CC(C)OC(C)C5)nc4)cc3c2C(C)C)cc(C)n1 (stereo not drawn) [Example 335, 4-(5-(2-(2,6-dimethylpyridin-4-yl)-3-isopropyl-1H-indol-5-yl)pyridin-2-yl)-2,6-dimethylmorpholine]",106,166,38100
"Cc1cc(-c2[nH]c3ccc(-c4ccc(N5CCCC5)nc4)cc3c2C(C)C)cc(C)n1 [Example 336, 2-(2,6-dimethylpyridin-4-yl)-3-isopropyl-5-(6-(pyrrolidin-1-yl)pyridin-3-yl)-1H-indole]",15,41,2340
"Cc1cc(-c2[nH]c3ccc(-c4ccc(N5CCC(N(C)C)CC5)nc4)cc3c2C(C)C)cc(C)n1 [Example 337, 1-(5-(2-(2,6-dimethylpyridin-4-yl)-3-isopropyl-1H-indol-5-yl)pyridin-2-yl)-N,N-dimethylpiperidin-4-amine]",4.9,6.7,220
"Cc1cc(-c2[nH]c3ccc(-c4ccc(N5CCC5)nc4)cc3c2C(C)C)cc(C)n1 [Example 338, 5-(6-(azetidin-1-yl)pyridin-3-yl)-2-(2,6-dimethylpyridin-4-yl)-3-isopropyl-1H-indole]",31,18,46500
"Cc1cc(-c2[nH]c3ccc(-c4ccc(N5CCN(CCO)CC5)nc4)cc3c2C(C)C)cc(C)n1 [Example 339, 2-(4-(5-(2-(2,6-dimethylpyridin-4-yl)-3-isopropyl-1H-indol-5-yl)pyridin-2-yl)piperazin-1-yl)ethan-1-ol]",5.4,8.3,523
"Cc1cc(-c2[nH]c3ccc(-c4nnc(C5CCCN(C(C)C)C5)[nH]4)cc3c2C(C)C)cc(C)n1 (stereo not drawn) [Example 340, 2-(2,6-dimethylpyridin-4-yl)-3-isopropyl-5-(5-(1-isopropylpiperidin-3-yl)-4H-1,2,4-triazol-3-yl)-1H-indole]",3.6,4,262
"Cc1cc(-c2[nH]c3ccc(-c4cc5c(s4)CN(C(=O)CN(C)C)CC5)cc3c2C(C)C)cc(C)n1 [Example 341, 2-(dimethylamino)-1-(2-(2-(2,6-dimethylpyridin-4-yl)-3-isopropyl-1H-indol-5-yl)-4,7-dihydrothieno[2,3-c]pyridin-6(5H)-yl)ethan-1-one]",5.9,6.4,295
"Cc1cc(-c2[nH]c3ccc(-c4cc5c(s4)CN(CC(=O)N(C)C)CC5)cc3c2C(C)C)cc(C)n1 [Example 342, 2-(2-(2-(2,6-dimethylpyridin-4-yl)-3-isopropyl-1H-indol-5-yl)-4,7-dihydrothieno[2,3-c]pyridin-6(5H)-yl)-N,N-dimethylacetamide]",8.9,19,1330
"Cc1cc(-c2[nH]c3ccc(-c4cc5c(s4)CN(Cc4c[nH]c(C)n4)CC5)cc3c2C(C)C)cc(C)n1 [Example 343, 2-(2-(2,6-dimethylpyridin-4-yl)-3-isopropyl-1H-indol-5-yl)-6-((2-methyl-1H-imidazol-4-yl)methyl)-4,5,6,7-tetrahydrothieno[2,3-c]pyridine]",1.3,3.7,146
"Cc1cc(-c2[nH]c3ccc(-c4ccnc(C5CCNCC5)c4)cc3c2C(C)C)cc(C)n1 [Example 344, 2-(2,6-dimethylpyridin-4-yl)-3-isopropyl-5-(2-(piperidin-4-yl)pyridin-4-yl)-1H-indole]",7.9,5,181
"Cc1cc(-c2[nH]c3ccc(-c4ccnc(C5CCN(C(C)C)CC5)c4)cc3c2C(C)C)cc(C)n1 [Example 345, 2-(2,6-dimethylpyridin-4-yl)-3-isopropyl-5-(2-(1-isopropylpiperidin-4-yl)pyridin-4-yl)-1H-indole]",8.5,13,183
"CNc1nnc(-c2ccc3[nH]c(-c4ccnc(C)c4)c(C(C)C)c3c2)o1 [Example 346, 5-(3-isopropyl-2-(2-methylpyridin-4-yl)-1H-indol-5-yl)-N-methyl-1,3,4-oxadiazol-2-amine]",32,158,> 50000
"Cc1cc(-c2[nH]c3ccc(-c4cn5cc(C)nc5cc4C)cc3c2C(C)C)cc(C)n1 [Example 347, 6-(2-(2,6-dimethylpyridin-4-yl)-3-isopropyl-1H-indol-5-yl)-2,7-dimethylimidazo[1,2-a]pyridine]",6.9,6.6,592
"Cc1cc(-c2[nH]c3ccc(-c4cn5cc(C)nc5cc4F)cc3c2C(C)C)cc(C)n1 [Example 348, 6-(2-(2,6-dimethylpyridin-4-yl)-3-isopropyl-1H-indol-5-yl)-7-fluoro-2-methylimidazo[1,2-a]pyridine]",20,3.7,3640
"Cc1cc(-c2[nH]c3ccc(-c4ccc(N)nn4)cc3c2C(C)C)cc(C)n1 [Example 349, 6-(2-(2,6-dimethylpyridin-4-yl)-3-isopropyl-1H-indol-5-yl)pyridazin-3-amine]",5.6,8.6,2120
"Cc1cc(-c2[nH]c3ccc(-c4csc(N5CCCCC5)n4)cc3c2C(C)C)cc(C)n1 [Example 350, 4-(2-(2,6-dimethylpyridin-4-yl)-3-isopropyl-1H-indol-5-yl)-2-(piperidin-1-yl)thiazole]",685,742,> 50000
"Cc1cc(-c2[nH]c3ccc(-c4cc5c(s4)CN(C(=O)C[C@H](C)O)CC5)cc3c2C(C)C)cc(C)n1 [Example 351, (S)-1-(2-(2-(2,6-dimethylpyridin-4-yl)-3-isopropyl-1H-indol-5-yl)-4,7-dihydrothieno[2,3-c]pyridin-6(5H)-yl)-3-hydroxybutan-1-one]",46,64,32900
"Cc1cc(-c2[nH]c3ccc(-c4cc5c(s4)CN(C(=O)C4CC(=O)N(C)C4)CC5)cc3c2C(C)C)cc(C)n1 (stereo not drawn) [Example 352, 4-(2-(2-(2,6-dimethylpyridin-4-yl)-3-isopropyl-1H-indol-5-yl)-4,5,6,7-tetrahydrothieno[2,3-c]pyridine-6-carbonyl)-1-methylpyrrolidin-2-one]",49,143,20400
"Cc1cc(-c2[nH]c3ccc(-c4cc5c(s4)CN(C(=O)CS(C)(=O)=O)CC5)cc3c2C(C)C)cc(C)n1 [Example 353, 1-(2-(2-(2,6-dimethylpyridin-4-yl)-3-isopropyl-1H-indol-5-yl)-4,7-dihydrothieno[2,3-c]pyridin-6(5H)-yl)-2-(methylsulfonyl)ethan-1-one]",39,53,> 50000
"Cc1cc(-c2[nH]c3ccc(-c4cn5c(n4)CNCC5)cc3c2C(C)C)cc(C)n1 [Example 354, 2-(2-(2,6-dimethylpyridin-4-yl)-3-isopropyl-1H-indol-5-yl)-5,6,7,8-tetrahydroimidazo[1,2-a]pyrazine]",2.8,48,2100
"Cc1cc(-c2[nH]c3ccc(-c4ccn5ncnc5c4C)cc3c2C(C)C)cc(C)n1 [Example 355, 7-(2-(2,6-dimethylpyridin-4-yl)-3-isopropyl-1H-indol-5-yl)-8-methyl-[1,2,4]triazolo[1,5-a]pyridine]",176,57,25200
"CNCC(=O)Nc1cnc(-c2ccc3[nH]c(-c4cc(C)nc(C)c4)c(C(C)C)c3c2)cn1 [Example 356, N-(5-(2-(2,6-dimethylpyridin-4-yl)-3-isopropyl-1H-indol-5-yl)pyrazin-2-yl)-2-(methylamino)acetamide]",4.6,10,952
"Cc1cc(-c2[nH]c3ccc(-c4nnc(C5CCCN(C(C)C)C5)[nH]4)cc3c2C(C)C)cc(C)n1 (stereo not drawn) [Example 357, 2-(2,6-dimethylpyridin-4-yl)-3-isopropyl-5-(5-(1-isopropylpiperidin-3-yl)-4H-1,2,4-triazol-3-yl)-1H-indole]",1.4,4.4,205
"Cc1cc(-c2[nH]c3ccc(-c4nnc(C5CCCN(C(C)C)C5)[nH]4)cc3c2C(C)C)cc(C)n1 (stereo not drawn) [Example 358, 2-(2,6-dimethylpyridin-4-yl)-3-isopropyl-5-(5-(1-isopropylpiperidin-3-yl)-4H-1,2,4-triazol-3-yl)-1H-indole]",1.6,4.9,157
"Cc1cc(-c2[nH]c3ccc(-c4cnc(N)cn4)cc3c2C(C)C)ccn1 [Example 359, 5-(3-isopropyl-2-(2-methylpyridin-4-yl)-1H-indol-5-yl)pyrazin-2-amine]",7.5,17,14400
"Cc1cc(-c2[nH]c3ccc(-c4ccc(N)nn4)cc3c2C(C)C)ccn1 [Example 360, 6-(3-isopropyl-2-(2-methylpyridin-4-yl)-1H-indol-5-yl)pyridazin-3-amine]",16,58,27000

# Reference: patent US11420958B2, “Aryl and heteroaryl substituted indole compounds” (BRISTOL-MYERS SQUIBB COMPANY, priority 2017, dated 2022)
